In general, IC50 refers to the concentration needed to halve the response being measured. A lower IC50 goes with higher potency.

Starred links: 1 amine or outer side, 2 acyl side, 3 side chain; linkers in the order of their positions; H or OH if unused. Non-standard residues stand in square brackets, D forms with d. Residues, ends and D or L forms follow the SMILES beside them. Groups on a side chain read outwards from the residue. *: point of attachment. dAla(N-(6-guanidinohexyl)) = C[C@@H](NCCCCCCNC(=N)N)C(=O)O; DOTA = O=C(O)CN1CCN(CC(=O)O)CCN(CC(=O)*)CCN(CC(=O)O)CC1; X2 = CC(=O)NCCCCNC(=N)NCCCCCCN([C@H](C)C(=O)[*:2])[*:1]; 2Nal = N[C@@H](Cc1ccc2ccccc2c1)C(=O)O; dNMeOrn = CN[C@H](CCCN)C(=O)O; 4Amb = NCc1ccc(C(=O)O)cc1

The source of these data is patent publication US20240293587A1, “CXCR4-TARGETED DIAGNOSTIC AND THERAPEUTIC AGENTS WITH REDUCED SPECIES SELECTIVITY” (TECHNISCHE UNIVERSITÄT MÜNCHEN, priority 2018, published 2024).

For test [1], the target named is T1, human CXCR4 (hCXCR4) (Homo sapiens (Human), UniProt P61073). Kind of test: Competition binding on Jurkat cells with [125I]FC-131 as radioligand. The note with it: [125I]FC-131 radioligand, mean ± SD. Here is the method: (§1) For the determination of hCXCR4-affinity, competition binding experiments were performed using Jurkat cells and [^125I]FC131 or [^125I]R1 as radioligand. Affinity to mCXCR4 and rCXCR4 was determined using Eμ-Myc1080 mouse B-cell lyphoma cells ^57 or C6 rat glioma cells, respectively, and [^125I]R1 as the radioligand.
(§2) For IC50 determination using Jurkat or Eμ-Myc1080 cells, samples containing 2×10^5 cells (or 4×10^5 cells; exact cell number used in the respective evaluations is given in the results section) in Hank's balanced salt solution (HBSS)/1% Bovine Serum Albumin (BSA) were incubated with 100.000 cpm of the respective radioligand (approx. 0.1 nM) in the presence of increasing concentrations (10^−11 to 10^−5 M) of the respective peptide of interest (n=3 per concentration). The total sample volume was 250 μL. After incubation at room temperature (RT) for 120 min with gentle agitation (200 mot/min), the tubes were centrifuged (5 min, 450g, Megafuge 1.0, Heraeus Thermo Scientific) and the supernatant was carefully removed. After washing twice with 400 μL of cold HBSS, the amount of cell-bound radioligand was quantified using a […]-counter.
(§3) IC50 values were calculated using PRISM 6 software (Graph Pad Software, San Diego, CA) using a three-parameter sigmoidal dose response curve fit.

For test [2], the target named is T1, human CXCR4 (hCXCR4). The experiment in a line: Competition binding on Jurkat cells with [125I]R1 as radioligand. To be noted: 200.000 cells/sample, [125I]R1 radioligand, mean ± SD. Here is the method:
as §1, §2, §3

The next test concerns the target mouse CXCR4 (mCXCR4) (Mus musculus (Mouse), UniProt P70658). Kind of test: Competition binding on Eμ-Myc1080 mouse B-cell lymphoma cells with [125I]R1 as radioligand. The note with it: 200.000 cells/sample, [125I]R1 radioligand, mean ± SD. On the procedure:
as §1, §2, §3

The next test addresses murine receptor (mCXCR4) (Mus musculus (Mouse), UniProt P70658). The note with it: background statement; cited from earlier work.

mouse CXCR4 (mCXCR4), sequence (P70658 whole entry): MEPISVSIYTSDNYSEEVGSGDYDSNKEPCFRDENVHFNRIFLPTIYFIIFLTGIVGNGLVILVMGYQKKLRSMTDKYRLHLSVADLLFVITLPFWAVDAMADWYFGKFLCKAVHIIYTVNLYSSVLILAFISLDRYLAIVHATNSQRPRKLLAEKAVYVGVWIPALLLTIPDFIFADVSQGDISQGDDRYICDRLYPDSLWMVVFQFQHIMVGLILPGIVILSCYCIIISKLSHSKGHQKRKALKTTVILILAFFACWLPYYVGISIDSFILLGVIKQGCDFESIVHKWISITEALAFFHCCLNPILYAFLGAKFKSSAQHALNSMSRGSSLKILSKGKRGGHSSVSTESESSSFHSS
T1 sequence (P61073 whole entry): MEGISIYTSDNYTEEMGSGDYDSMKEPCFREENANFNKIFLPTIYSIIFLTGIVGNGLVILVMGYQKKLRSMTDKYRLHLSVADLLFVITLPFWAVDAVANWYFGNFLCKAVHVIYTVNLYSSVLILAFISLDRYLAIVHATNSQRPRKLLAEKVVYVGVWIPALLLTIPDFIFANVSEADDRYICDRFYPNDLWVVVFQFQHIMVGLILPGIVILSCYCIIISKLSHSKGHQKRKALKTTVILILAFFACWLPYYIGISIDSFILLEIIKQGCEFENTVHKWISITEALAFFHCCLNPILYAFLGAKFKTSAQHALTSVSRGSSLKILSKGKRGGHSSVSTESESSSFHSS
murine receptor (mCXCR4), sequence (P70658 whole entry): as the sequence (P70658 whole entry) above

“cyclo[ya′(hexylguanidino)RNalc(-CH2—CO—NH—CH2-(m-aryl)-CH2—NH-^natCu-DOTA)] [Pc5d]” gave an IC50 at human CXCR4 (hCXCR4) [1] (400.000 cells/sample) of 78 ± 5 nM.

As to “cyclo[ya′(hexylguanidino)RNalc(-CH2—CO—NH—CH2-(m-aryl)-CH2—NH-^natLu-DOTA)] [Pc5c]”, the concentration for half-maximal inhibition (IC50) at human CXCR4 (hCXCR4) [1] (400.000 cells/sample) worked out at 51 ± 4 nM. `C[C@@H]1C(=O)N[C@@H](CCCNC(=N)N)C(=O)N[C@@H](Cc2ccc3ccccc3c2)C(=O)NCC(=O)N[C@H](Cc2ccc(O)cc2)C(=O)N1CCCCCCNC(=N)NCCCCCCNC(=O)CCOCCOCCOCCOCCNC(=O)CCCCC[N+]1=C(/C=C/C=C/C=C2/N(C)c3ccc(S(=O)(=O)O)cc3C2(C)C)C(C)(C)c2cc(S(=O)(=O)[O-])ccc21` [P5g, Sulfo2-Cy5-PEG4-Hex-CPCR4.3]: the IC50 on human CXCR4 (hCXCR4) [2] came to 91 ± 49 nM; on mouse CXCR4 (mCXCR4) it was 63 ± 23 nM; on human CXCR4 (hCXCR4) [1] (200.000 cells/sample), 40 ± 5 nM. On to “cyclo(D-3-iodo-Tyr^1-D-[NMe]Orn^2(AMBS-DOTA)-Arg^3-Nal^4-Gly^5) [[^177Lu/^90Y]pentixather]”, for which the “affinity to mCXCR4 (in words)” value at murine receptor (mCXCR4) is listed as “virtually no affinity”. In the case of `C[C@@H]1C(=O)N[C@@H](CCCNC(=N)N)C(=O)N[C@@H](Cc2ccc3ccccc3c2)C(=O)NCC(=O)N[C@H](Cc2ccc(O)cc2)C(=O)N1CCCCCCNC(=N)NCCCCCCNC(=O)CN1CCN(CC(=O)O)CCN(CC(=O)O)CCN(CC(=O)O)CC1` (natGa complex, metal not drawn) [P5c], the concentration for half-maximal inhibition (IC50) at human CXCR4 (hCXCR4) [2] is 13 ± 2 nM; at mouse CXCR4 (mCXCR4) it was 12.7 ± 4.6 nM.

In the case of `C[C@@H]1C(=O)N[C@@H](CCCNC(=N)N)C(=O)N[C@@H](Cc2ccc3ccccc3c2)C(=O)NCC(=O)N[C@H](Cc2ccc(O)cc2)C(=O)N1CCCCCCNC(=N)NCCCCCCNC(=O)CN1CCN(CC(=O)O)CCN(CC(=O)O)CCN(CC(=O)O)CC1` (natLu complex, metal not drawn) [P5d], at mouse CXCR4 (mCXCR4), the concentration for half-maximal inhibition (IC50) stood at 17 ± 3.3 nM. For the compound `C[C@@H]1C(=O)N[C@@H](CCCNC(=N)N)C(=O)N[C@@H](Cc2ccc3ccccc3c2)C(=O)NCC(=O)N[C@H](Cc2ccc(O)cc2)C(=O)N1CCCCCCNC(=N)NCCCCCCNC(=O)CCCCCN1/C(=C/C=C/C=C/C2=[N+](CCCCCC(=O)NCCCCCCNC(=N)NCCCCCCN3C(=O)[C@@H](Cc4ccc(O)cc4)NC(=O)CNC(=O)[C@H](Cc4ccc5ccccc5c4)NC(=O)[C@H](CCCNC(=N)N)NC(=O)[C@H]3C)c3ccc(S(=O)(=O)[O-])cc3C2(C)C)C(C)(C)c2cc(S(=O)(=O)O)ccc21` [P5f, Sulfo2-Cy5(Hex-CPCR4.3)2], the IC50 was found to be 115 ± 39 nM at human CXCR4 (hCXCR4) [2] and 136 ± 26 nM on mouse CXCR4 (mCXCR4). For `C[C@@H]1C(=O)N[C@@H](CCCNC(=N)N)C(=O)N[C@@H](Cc2ccc3ccccc3c2)C(=O)NCC(=O)N[C@H](Cc2ccc(O)cc2)C(=O)N1CCCCCCNC(=N)NCCCCCCNC(=O)CCCCC[N+]1=C(/C=C/C=C/C=C2/N(C)c3ccc(S(=O)(=O)O)cc3C2(C)C)C(C)(C)c2cc(S(=O)(=O)[O-])ccc21` [P5e, Sulfo2-Cy5-Hex-CPCR4.3], in that order: 156 ± 11 nM and 156 ± 7 nM. As to `CN1C(=O)[C@@H](Cc2ccc(O)cc2)NC(=O)CNC(=O)[C@H](Cc2ccc3ccccc3c2)NC(=O)[C@H](CCCN=C(N)N)NC(=O)[C@H]1CCCNC(=O)c1ccc(CNC(=O)CN2CCN(CC(=O)[O-])CCN(CC(=O)[O-])CCN(CC(=O)[O-])CC2)cc1.[68Ga+3]` [[^68Ga]pentixafor, cyclo(D-Tyr^1-D-[NMe]Orn^2(AMBS-DOTA)-Arg^3-Nal^4-Gly^5)] (cyclo([2Nal]G[dY][dNMeOrn]([4Amb-DOTA])R)), at murine receptor (mCXCR4), the “affinity to mCXCR4 (in words)” value is recorded as “virtually no affinity”. As for `CC(=O)NCCCCNC(=N)NCCCCCCN1C(=O)[C@@H](Cc2ccc(O)cc2)NC(=O)CNC(=O)[C@H](Cc2ccc3ccccc3c2)NC(=O)[C@H](CCCNC(=N)N)NC(=O)[C@H]1C` [P3, c(y-(NHex-Gua-But-Ac)a-R-Nal-G)] (cyclo([dY][X2]R[2Nal]G)), the IC50 on human CXCR4 (hCXCR4) [1] (200.000 cells/sample) was found to be 2.1 ± 0.5 nM.

The compound `C[C@@H]1C(=O)N[C@@H](CCCNC(=N)N)C(=O)N[C@@H](Cc2ccc3ccccc3c2)C(=O)N[C@H](CS)C(=O)N[C@H](Cc2ccc(O)cc2)C(=O)N1CCCCCCNC(=N)N` [Pc0, Cyclo(ya′(hexylguanidino)Rnalc)] (cyclo([2Nal][dC][dY][dAla(N-(6-guanidinohexyl))]R)) returned a half-maximal inhibitory concentration (IC50) at human CXCR4 (hCXCR4) [1] (400.000 cells/sample) of 35 ± 2 nM. As for “cyclo[ya′(hexyluanidino)RNalc(-CH2—CO—NH—CH2-(m-aryl)-CH2—NH-^natGa-DOTA)] [Pc5b]”, the half-maximal inhibitory concentration (IC50) on human CXCR4 (hCXCR4) [2] was 64 ± 29 nM; at mouse CXCR4 (mCXCR4), 63 ± 19 nM; on human CXCR4 (hCXCR4) [1] (400.000 cells/sample), 31 ± 3 nM.
